The numbers were not newly measured in patent publication US20150275302A1, “DETERMINATION OF SINGLE NUCLEOTIDE POLYMORPHISMS USEFUL TO PREDICT RESPONSE FOR RASAGILINE” (TEVA PHARMACEUTICAL INDUSTRIES, LTD., priority 2014, published 2015), which cites them from elsewhere.

For the series the following is noted: in vivo.

Each structure is given as a SMILES string.

Take `C#CCN[C@@H]1CCc2ccccc21` [rasagiline, R(+)-N-propargyl-l-aminoindan]: the absolute bioavailability result is recorded as “about 36%”.
